Reference: ChEMBL document CHEMBL5442334, “ASAP - In vitro safety pharmacology profile” (2024)

Legend:
[1] = target: GABA-A receptor; anion channel (Rattus norvegicus) (UniProt O09028+P15431+P18506+P18508+P19969+P20236+P23574+P23576+P28471+P28473+P30191+P62813+P63079+P63138+Q91ZM7+Q9ES14); test: SafetyScreen: GABAA (Non-Selective) Rat Ion Channel [3H] Flunitrazepam Binding Agonist Radioligand LeadHunter Assay, catalogue number: 28; assay type: protein-complex assay; details: Test compound concentration 10.0 uM
[2] = target: T1, Muscarinic acetylcholine receptor M2 (Homo sapiens) (UniProt P08172); test: SafetyScreen: M2 Human Acetylcholine (Muscarinic) GPCR Binding Antagonist Radioligand LeadHunter Assay, catalogue number: 93; details: Test compound concentration 10.0 uM
T1 sequence (whole entry): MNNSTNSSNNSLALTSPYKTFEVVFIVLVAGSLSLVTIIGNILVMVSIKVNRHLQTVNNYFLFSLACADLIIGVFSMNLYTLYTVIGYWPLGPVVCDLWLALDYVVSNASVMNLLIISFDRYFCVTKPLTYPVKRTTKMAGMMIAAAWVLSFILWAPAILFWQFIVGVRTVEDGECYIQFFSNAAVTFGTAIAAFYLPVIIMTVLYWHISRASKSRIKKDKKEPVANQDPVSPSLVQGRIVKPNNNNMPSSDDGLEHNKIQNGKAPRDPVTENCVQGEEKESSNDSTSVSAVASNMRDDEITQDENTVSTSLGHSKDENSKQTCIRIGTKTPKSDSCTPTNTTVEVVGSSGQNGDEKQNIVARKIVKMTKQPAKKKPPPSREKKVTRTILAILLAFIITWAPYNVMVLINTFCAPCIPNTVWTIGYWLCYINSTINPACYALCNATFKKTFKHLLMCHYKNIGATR

[3] = target: Histamine H1 receptor (Homo sapiens) (UniProt P35367); test: SafetyScreen: H1 Human Histamine GPCR Binding Antagonist Radioligand LeadHunter Assay, catalogue number: 870; details: Test compound concentration 10.0 uM
Histamine H1 receptor (Homo sapiens), sequence (P35367 whole entry): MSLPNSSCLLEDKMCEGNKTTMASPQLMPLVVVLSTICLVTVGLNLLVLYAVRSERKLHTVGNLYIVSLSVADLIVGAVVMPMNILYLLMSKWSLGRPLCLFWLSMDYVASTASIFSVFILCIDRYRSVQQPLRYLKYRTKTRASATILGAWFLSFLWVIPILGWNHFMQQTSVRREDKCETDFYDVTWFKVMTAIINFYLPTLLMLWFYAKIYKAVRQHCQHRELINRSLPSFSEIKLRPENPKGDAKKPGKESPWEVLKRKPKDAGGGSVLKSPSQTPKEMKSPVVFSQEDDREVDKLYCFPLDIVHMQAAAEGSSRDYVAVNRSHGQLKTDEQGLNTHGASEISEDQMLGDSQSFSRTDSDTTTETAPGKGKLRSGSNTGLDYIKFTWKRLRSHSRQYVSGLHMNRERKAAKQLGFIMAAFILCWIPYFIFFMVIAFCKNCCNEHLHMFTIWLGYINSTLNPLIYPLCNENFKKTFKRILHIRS

[4] = target: T2, 5-hydroxytryptamine receptor 1A (Homo sapiens) (UniProt P08908); test: SafetyScreen: 5-HT1A Human Serotonin GPCR Binding Agonist Radioligand LeadHunter Assay, catalogue number: 131; details: Test compound concentration 10.0 uM
T2 sequence (whole entry): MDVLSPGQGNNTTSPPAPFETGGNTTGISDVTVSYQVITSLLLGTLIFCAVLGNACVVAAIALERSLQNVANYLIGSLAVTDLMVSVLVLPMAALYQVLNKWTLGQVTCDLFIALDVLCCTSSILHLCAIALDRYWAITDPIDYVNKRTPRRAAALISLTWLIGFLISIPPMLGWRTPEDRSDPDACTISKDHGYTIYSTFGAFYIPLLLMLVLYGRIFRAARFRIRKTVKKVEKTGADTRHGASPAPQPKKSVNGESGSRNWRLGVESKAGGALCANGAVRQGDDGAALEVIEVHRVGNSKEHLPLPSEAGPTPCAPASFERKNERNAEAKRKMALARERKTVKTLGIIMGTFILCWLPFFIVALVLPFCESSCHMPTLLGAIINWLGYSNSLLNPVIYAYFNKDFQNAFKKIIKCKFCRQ

[5] = target: Mu-type opioid receptor (Homo sapiens) (UniProt P35372); test: SafetyScreen: mu (MOP) Human Opioid GPCR Binding Agonist Radioligand LeadHunter Assay, catalogue number: 118; details: Test compound concentration 10.0 uM
Mu-type opioid receptor (Homo sapiens), sequence (P35372 whole entry): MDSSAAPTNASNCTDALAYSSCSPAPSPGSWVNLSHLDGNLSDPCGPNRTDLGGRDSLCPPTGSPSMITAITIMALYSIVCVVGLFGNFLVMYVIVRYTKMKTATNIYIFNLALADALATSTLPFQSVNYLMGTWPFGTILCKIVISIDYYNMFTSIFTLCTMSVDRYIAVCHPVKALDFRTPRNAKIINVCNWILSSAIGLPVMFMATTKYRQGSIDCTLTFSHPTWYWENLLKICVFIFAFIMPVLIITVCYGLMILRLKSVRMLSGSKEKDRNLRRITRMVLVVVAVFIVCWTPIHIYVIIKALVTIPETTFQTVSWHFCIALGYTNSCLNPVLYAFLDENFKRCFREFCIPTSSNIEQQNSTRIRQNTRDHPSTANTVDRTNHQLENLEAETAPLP

[6] = system: Voltage-gated sodium channel; test: SafetyScreen: Sodium Ion Channel Site 2 (Non-Selective) Rat Ion Channel [3H] Batrachotoxinin Binding LeadHunter Assay, catalogue number: 169; assay type: protein assay; details: at 10 µM, test compound concentration 10 uM
[7] = target: 5-hydroxytryptamine receptor 1B (Homo sapiens) (UniProt P28222); test: SafetyScreen: 5-HT1B Human Serotonin GPCR Binding Antagonist Radioligand LeadHunter Assay, catalogue number: 4376; details: Test compound concentration 10.0 uM
5-hydroxytryptamine receptor 1B (Homo sapiens), sequence (P28222 whole entry): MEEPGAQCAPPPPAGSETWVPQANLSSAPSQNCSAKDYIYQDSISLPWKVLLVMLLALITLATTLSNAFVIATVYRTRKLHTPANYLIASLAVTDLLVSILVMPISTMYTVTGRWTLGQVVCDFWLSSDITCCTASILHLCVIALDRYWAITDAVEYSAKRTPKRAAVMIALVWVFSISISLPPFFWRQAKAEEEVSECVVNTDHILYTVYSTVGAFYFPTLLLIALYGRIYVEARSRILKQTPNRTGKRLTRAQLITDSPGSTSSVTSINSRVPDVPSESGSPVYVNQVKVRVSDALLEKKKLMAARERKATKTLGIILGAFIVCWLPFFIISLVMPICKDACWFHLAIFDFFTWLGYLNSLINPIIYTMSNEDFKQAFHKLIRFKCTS

[8] = target: T3, Prostaglandin G/H synthase 2 (Homo sapiens) (UniProt P35354); test: SafetyScreen: COX2 Human Cyclooxygenase Enzymatic LeadHunter Assay, catalogue number: 4186; assay type: functional; details: Test compound concentration 10.0 uM
T3 sequence (whole entry): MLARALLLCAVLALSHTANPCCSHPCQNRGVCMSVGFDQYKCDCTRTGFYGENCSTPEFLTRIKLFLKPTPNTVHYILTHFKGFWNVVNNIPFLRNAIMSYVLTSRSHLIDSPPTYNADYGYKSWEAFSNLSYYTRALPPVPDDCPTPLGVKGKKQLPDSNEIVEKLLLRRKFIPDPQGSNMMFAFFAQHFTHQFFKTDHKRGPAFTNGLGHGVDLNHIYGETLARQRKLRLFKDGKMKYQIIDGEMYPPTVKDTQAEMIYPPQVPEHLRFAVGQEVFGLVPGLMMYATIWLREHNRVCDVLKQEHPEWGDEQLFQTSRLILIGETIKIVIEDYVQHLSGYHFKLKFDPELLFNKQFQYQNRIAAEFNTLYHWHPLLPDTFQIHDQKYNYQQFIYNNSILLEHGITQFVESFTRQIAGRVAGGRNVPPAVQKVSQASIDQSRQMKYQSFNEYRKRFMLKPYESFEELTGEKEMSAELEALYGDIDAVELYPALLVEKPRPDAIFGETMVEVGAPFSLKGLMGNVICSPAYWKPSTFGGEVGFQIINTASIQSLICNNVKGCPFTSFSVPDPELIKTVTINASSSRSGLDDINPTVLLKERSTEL

[9] = target: Sodium-dependent serotonin transporter (Homo sapiens) (UniProt P31645); test: SafetyScreen: SERT Human Serotonin Transporter Binding Antagonist Radioligand LeadHunter Assay, catalogue number: 439; details: Test compound concentration 10.0 uM
Sodium-dependent serotonin transporter (Homo sapiens), sequence (P31645 whole entry, looked up): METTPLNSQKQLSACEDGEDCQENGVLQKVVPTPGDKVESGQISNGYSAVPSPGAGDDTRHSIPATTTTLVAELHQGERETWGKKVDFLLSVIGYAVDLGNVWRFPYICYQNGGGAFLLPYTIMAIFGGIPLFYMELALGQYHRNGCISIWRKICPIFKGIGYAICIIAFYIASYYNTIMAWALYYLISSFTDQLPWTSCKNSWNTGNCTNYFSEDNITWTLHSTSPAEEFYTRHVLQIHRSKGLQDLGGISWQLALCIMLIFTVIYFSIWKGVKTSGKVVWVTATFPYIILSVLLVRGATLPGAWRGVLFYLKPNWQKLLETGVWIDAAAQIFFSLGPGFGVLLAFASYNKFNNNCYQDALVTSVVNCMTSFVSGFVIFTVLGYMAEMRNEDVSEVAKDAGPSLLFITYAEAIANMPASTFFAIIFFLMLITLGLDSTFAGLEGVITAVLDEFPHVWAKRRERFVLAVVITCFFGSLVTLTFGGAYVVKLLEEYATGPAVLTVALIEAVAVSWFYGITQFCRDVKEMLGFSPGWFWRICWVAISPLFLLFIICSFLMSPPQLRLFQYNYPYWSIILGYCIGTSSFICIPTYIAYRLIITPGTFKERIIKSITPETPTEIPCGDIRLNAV

[10] = target: Voltage-gated L-type calcium channel (Rattus norvegicus, UniProt P22002+Q02485+P27732); test: SafetyScreen: Cav1.2 (L-type) Rat Calcium Ion Channel Binding (Dihydropyridine Site) LeadHunter Assay, catalogue number: 161; assay type: protein assay; details: at 10 µM, test compound concentration 10 uM
[11] = target: Cannabinoid receptor 1 (Homo sapiens) (UniProt P21554); test: SafetyScreen: CB1 Human Cannabinoid GPCR Binding Agonist Radioligand LeadHunter Assay, catalogue number: 4708; details: Test compound concentration 10.0 uM
Cannabinoid receptor 1 (Homo sapiens), sequence (P21554 whole entry): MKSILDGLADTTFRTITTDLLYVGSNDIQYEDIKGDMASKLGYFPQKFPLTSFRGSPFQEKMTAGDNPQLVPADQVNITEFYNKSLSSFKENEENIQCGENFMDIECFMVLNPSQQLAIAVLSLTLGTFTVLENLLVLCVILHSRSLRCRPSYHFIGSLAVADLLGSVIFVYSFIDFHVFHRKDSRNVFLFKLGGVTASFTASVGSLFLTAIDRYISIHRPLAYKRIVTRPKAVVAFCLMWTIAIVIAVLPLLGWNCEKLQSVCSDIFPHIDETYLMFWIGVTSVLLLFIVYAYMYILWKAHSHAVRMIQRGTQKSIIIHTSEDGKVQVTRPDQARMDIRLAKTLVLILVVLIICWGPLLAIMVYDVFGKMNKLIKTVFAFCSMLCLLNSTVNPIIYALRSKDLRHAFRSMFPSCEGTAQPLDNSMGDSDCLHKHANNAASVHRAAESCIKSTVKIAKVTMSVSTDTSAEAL

Compound	inhibition [1] [%]	inhibition [2] [%]	inhibition [3] [%]	inhibition [4] [%]	inhibition [5] [%]	Inhibition [6] [%]	inhibition [7] [%]	inhibition [8] [%]	inhibition [9] [%]	Inhibition [10] [%]	inhibition [11] [%]
C[C@H](C(=O)O)[C@@H](NC(=O)c1ncnc2[nH]ccc12)c1ccc(Br)cc1	-4	-4	-8	2	-10	6	1	7	0	-12	–
COc1ccc([C@H](Cc2nnn[nH]2)NC(=O)c2ncnc3[nH]ccc23)cc1	0	–	-4	5	-3	-3	–	-1	-1	-22	-8
CC(C)[C@@H](Nc1ncnc2[nH]c(-c3cnn(C)c3C#N)cc12)c1ccc2c(n1)OCCO2	8	15	0	22	77	12	4	-7	9	10	14
CNC(=O)Cn1cc(-c2cc3c(N[C@@H](c4ccc5c(c4)S(=O)(=O)CCC5)C(C)C)ncnc3[nH]2)cn1	35	7	-5	13	3	11	0	27	-3	-1	-10
CC(C)[C@H](Nc1ncnc2[nH]ccc12)c1ccc2c(c1)S(=O)(=O)CCC2	4	34	-3	12	8	-5	0	23	0	12	–
Cn1ncc(-c2cc3c(N[C@@H](c4ccc5c(n4)OCCO5)C(C)(C)C)ncnc3[nH]2)c1C#N	-5	25	7	15	28	34	18	-9	2	21	33
CC(C)[C@@H](Nc1ncnc2[nH]c(C(=O)N[C@@H]3CCN(C)C3)cc12)c1ccc2c(c1)S(=O)(=O)CCC2	38	52	2	14	7	16	17	4	1	-6	-10
CNCc1cc(-c2cc3c(N[C@@H](c4ccc5c(c4)S(=O)(=O)CCC5)C(C)C)ncnc3[nH]2)co1	28	52	-3	6	-5	19	45	24	24	-3	3
Cc1nn(C)cc1-c1cc2c(N[C@H](c3ccc4c(c3)S(=O)(=O)CCC4)C(C)C)ncnc2[nH]1	29	5	0	10	28	-1	15	23	-4	12	0
CC(C)[C@H](Nc1ncnc2[nH]c(-c3cnn(C)c3C#N)cc12)c1ccc2c(n1)OCCO2	-2	18	5	43	15	10	–	-2	4	9	46
